This note sets out measurements from patent US20190046536A1, “Combination Therapy” (Eli Lilly and Company, priority 2016, published 2019).

The data set is described as follows: Stability of the crystal form. Format: physicochemical. The note with it: room temperature and relative humidity greater than about 15%.

`COc1cnc(C(=O)Nc2ccc(F)c([C@]34CN(c5ncc(F)cn5)C[C@H]3CSC(N)=N4)c2)cn1` [Example 2, N-[3-[(4aR,7aS)-2-Amino-6-(5-fluoropyrimidin-2-yl)-4,4a, 5,7-tetrahydropyrrolo[3,4-d][1,3]thiazin-7a-yl]-4-fluoro-phenyl]-5-methoxy-pyrazine-2-carboxamide]: the crystal form stability entry was “stable crystal form”.
